Measurements taken from patent publication US12643882B2, “Inhibitors of human respiratory syncytial virus and metapneumovirus” (priority 2022, dated 2026).

Experiments:
RSV-A2-GFP virus = experiment: microbe, parasite or virus in culture; type: cell-based, Human Respiratory Syncytial Virus; conditions: Calu-1 cells infected with RSV-A2-GFP, 96 hrs, GFP-expressing cells counted; read-out: RSV EC50
Summary of the method: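 IC50 (GFP-expressing cell counts by Acumen imaging) and CC50 (same-well CellTiter-Glo) were obtained by 4-parameter logistic fitting. Compounds were tested in 10-point 3-fold series for 96 h at 37° C, 5% CO2. Thawed Calu-1 ARF cells were infected at MOI 1.2 with GFP-reporter RSV-A2 in 2% FBS DMEM.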

hMPV-GFP virus = experiment: microbe, parasite or virus in culture; type: cell-based, human metapneumovirus; conditions: VERO cells infected with hMPV-GFP, 48 hrs, GFP-expressing cells counted; read-out: hMPV EC50
Summary of the method: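 Antiviral IC50 was derived from imaging counts of GFP-expressing cells, with CC50 from a same-well CellTiter-Glo read, both by 4-parameter logistic fitting. VERO cells plus hMPV-GFP (MOI 1.25) were exposed 48 h at 37 °C to 10-point 3-fold compound dilutions (typical final 40,300–2 nM).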

Structure (SMILES)	EC50 (RSV-A2-GFP virus) [µM]	EC50 (hMPV-GFP virus) [µM]
Cc1nc(-c2ncccn2)sc1C(=O)N1C[C@@H]2[C@H](C1)[C@H]2Oc1cc(C(C)(C)N)cc(-c2cccc(F)c2)n1 [Example 16, ((1R,5S,6s)-6-((4-(2-aminopropan-2-yl)-6-(3-fluorophenyl)pyridin-2-yl)oxy)-3-azabicyclo[3.1.0]hexan-3-yl)(4-methyl-2-(pyrimidin-2-yl)thiazol-5-yl)methanone]	< 0.01	0.01 to 0.1
Cc1nc(-c2ncccn2)sc1C(=O)N1C[C@@H]2[C@H](C1)[C@H]2Oc1cc(C(C)(C)N)cc(-c2ccc(F)c(Cl)c2)n1 [Example 17, ((1R,5S,6s)-6-((4-(2-aminopropan-2-yl)-6-(3-chloro-4-fluorophenyl)pyridin-2-yl)oxy)-3-azabicyclo[3.1.0]hexan-3-yl)(4-methyl-2-(pyrimidin-2-yl)thiazol-5-yl)methanone]	< 0.01	0.01 to 0.1
Cc1nc(-c2ncccn2)sc1C(=O)N1C[C@@H]2[C@H](C1)[C@H]2Oc1cc(C(C)(C)N)cc(-c2ccc(Cl)c(F)c2)n1 [Example 18, ((1R,5S,6s)-6-((4-(2-aminopropan-2-yl)-6-(4-chloro-3-fluorophenyl)pyridin-2-yl)oxy)-3-azabicyclo[3.1.0]hexan-3-yl)(4-methyl-2-(pyrimidin-2-yl)thiazol-5-yl)methanone]	< 0.01	0.01 to 0.1
Cc1nc(-c2ncccn2)sc1C(=O)N1C[C@@H]2[C@H](C1)[C@H]2Oc1cc(C(C)(C)N)cc(-c2ccc(Cl)cc2)n1 [Example 19, ((1R,5S,6s)-6-((4-(2-aminopropan-2-yl)-6-(4-chlorophenyl)pyridin-2-yl)oxy)-3-azabicyclo[3.1.0]hexan-3-yl)(4-methyl-2-(pyrimidin-2-yl)thiazol-5-yl)methanone]	< 0.01	< 0.01
Cc1nc(-c2ncccn2)sc1C(=O)N1C[C@@H]2[C@H](C1)[C@H]2Oc1cc(C(C)(C)N)cc(-c2ccccc2)n1 [Example 20, ((1R,5S,6s)-6-((4-(2-aminopropan-2-yl)-6-phenylpyridin-2-yl)oxy)-3-azabicyclo[3.1.0]hexan-3-yl)(4-methyl-2-(pyrimidin-2-yl)thiazol-5-yl)methanone]	< 0.01	> 0.1
Cc1nc(-c2ncccn2)sc1C(=O)N1C[C@@H]2[C@H](C1)[C@H]2Oc1cc(C(C)(C)N)cc(-c2ccc(C3CC3)cc2)n1 [Example 22, ((1R,5S,6s)-6-((4-(2-aminopropan-2-yl)-6-(4-cyclopropylphenyl)pyridin-2-yl)oxy)-3-azabicyclo[3.1.0]hexan-3-yl)(4-methyl-2-(pyrimidin-2-yl)thiazol-5-yl)methanone]	< 0.01	> 0.1
Cc1nc(-c2ncccn2)sc1C(=O)N1C[C@@H]2[C@H](C1)[C@H]2Oc1cc(C(C)(C)N)cc(-c2ccc(C#N)cc2)n1 [Example 23, 4-(4-(2-aminopropan-2-yl)-6-(((1R,5S,6s)-3-(4-methyl-2-(pyrimidin-2-yl)thiazole-5-carbonyl)-3-azabicyclo[3.1.0]hexan-6-yl)oxy)pyridin-2-yl)benzonitrile]	< 0.01	> 0.1
Cc1nc(-c2ncccn2)sc1C(=O)N1C[C@@H]2[C@H](C1)[C@H]2Oc1cc(C(C)(C)N)cc(-c2ccc(OC(F)F)cc2)n1 [Example 24, ((1R,5S,6s)-6-((4-(2-aminopropan-2-yl)-6-(4-(difluoromethoxy)phenyl)pyridin-2-yl)oxy)-3-azabicyclo[3.1.0]hexan-3-yl)(4-methyl-2-(pyrimidin-2-yl)thiazol-5-yl)methanone]	< 0.01	0.01 to 0.1
Cc1nc(-c2ncccn2)sc1C(=O)N1C[C@@H]2[C@H](C1)[C@H]2Oc1cc(C(C)(C)N)cc(-c2ccc(C(F)F)cc2)n1 [Example 25, ((1R,5S,6s)-6-((4-(2-aminopropan-2-yl)-6-(4-(difluoromethyl)phenyl)pyridin-2-yl)oxy)-3-azabicyclo[3.1.0]hexan-3-yl)(4-methyl-2-(pyrimidin-2-yl)thiazol-5-yl)methanone]	< 0.01	0.01 to 0.1
Cc1nc(-c2ncccn2)sc1C(=O)N1C[C@@H]2[C@H](C1)[C@H]2Oc1cc(C(C)(C)N)cc(-c2ccc(C(C)(F)F)cc2)n1 [Example 26, ((1R,5S,6s)-6-((4-(2-aminopropan-2-yl)-6-(4-(1,1-difluoroethyl)phenyl)pyridin-2-yl)oxy)-3-azabicyclo[3.1.0]hexan-3-yl)(4-methyl-2-(pyrimidin-2-yl)thiazol-5-yl)methanone]	< 0.01	0.01 to 0.1
Cc1nc(-c2ncccn2)sc1C(=O)N1C[C@@H]2[C@H](C1)[C@H]2Oc1cc(C(C)(C)N)cc(-c2ccc(C(F)(F)F)cc2)n1 [Example 27, ((1R,5S,6s)-6-((4-(2-aminopropan-2-yl)-6-(4-(trifluoromethyl)phenyl)pyridin-2-yl)oxy)-3-azabicyclo[3.1.0]hexan-3-yl)(4-methyl-2-(pyrimidin-2-yl)thiazol-5-yl)methanone]	< 0.01	0.01 to 0.1
Cc1nc(-c2ncccn2)sc1C(=O)N1C[C@@H]2[C@H](C1)[C@H]2Oc1cc(C(C)(C)N)cc(-c2ccc(C(F)(F)F)nc2)n1 [Example 28, ((1R,5S,6s)-6-((4-(2-aminopropan-2-yl)-6′-(trifluoromethyl)-[2,3′-bipyridin]-6-yl)oxy)-3-azabicyclo[3.1.0]hexan-3-yl)(4-methyl-2-(pyrimidin-2-yl)thiazol-5-yl)methanone]	< 0.01	0.01 to 0.1
Cc1nc(-c2ncccn2)sc1C(=O)N1C[C@@H]2[C@H](C1)[C@H]2Oc1cc(C(C)(C)N)cc(-c2ccc(C(F)(F)F)c(Cl)c2)n1 [Example 29, ((1R,5S,6s)-6-((4-(2-aminopropan-2-yl)-6-(3-chloro-4-(trifluoromethyl)phenyl)pyridin-2-yl)oxy)-3-azabicyclo[3.1.0]hexan-3-yl)(4-methyl-2-(pyrimidin-2-yl)thiazol-5-yl)methanone]	< 0.01	0.01 to 0.1
Cc1nc(-c2ncccn2)sc1C(=O)N1C[C@@H]2[C@H](C1)[C@H]2Oc1cc(C(C)(C)N)cc(-c2ccc(C(F)(F)F)cc2Cl)n1 [Example 30, ((1R,5S,6s)-6-((4-(2-aminopropan-2-yl)-6-(2-chloro-4-(trifluoromethyl)phenyl)pyridin-2-yl)oxy)-3-azabicyclo[3.1.0]hexan-3-yl)(4-methyl-2-(pyrimidin-2-yl)thiazol-5-yl)methanone]	< 0.01	0.01 to 0.1
Cc1nc(-c2ncccn2)sc1C(=O)N1C[C@@H]2[C@H](C1)[C@H]2Oc1cc(C(C)(C)N)cc(-c2ccc(C(F)(F)F)c(F)c2F)n1 [Example 31, ((1R,5S,6s)-6-((4-(2-aminopropan-2-yl)-6-(2,3-difluoro-4-(trifluoromethyl)phenyl)pyridin-2-yl)oxy)-3-azabicyclo[3.1.0]hexan-3-yl)(4-methyl-2-(pyrimidin-2-yl)thiazol-5-yl)methanone]	< 0.01	0.01 to 0.1
Cc1ccc(-c2cc(C(C)(C)N)cc(O[C@H]3[C@@H]4CN(C(=O)c5sc(-c6ncccn6)nc5C)C[C@@H]43)n2)cc1C [Example 32, ((1R,5S,6s)-6-((4-(2-aminopropan-2-yl)-6-(3,4-dimethylphenyl)pyridin-2-yl)oxy)-3-azabicyclo[3.1.0]hexan-3-yl)(4-methyl-2-(pyrimidin-2-yl)thiazol-5-yl)methanone]	< 0.01	> 0.1
Cc1ccc(-c2cc(C(C)(C)N)cc(O[C@H]3[C@@H]4CN(C(=O)c5sc(-c6ncccn6)nc5C)C[C@@H]43)n2)c(C)c1 [Example 33, ((1R,5S,6s)-6-((4-(2-aminopropan-2-yl)-6-(2,4-dimethylphenyl)pyridin-2-yl)oxy)-3-azabicyclo[3.1.0]hexan-3-yl)(4-methyl-2-(pyrimidin-2-yl)thiazol-5-yl)methanone]	< 0.01	> 0.1
Cc1nc(-c2ncccn2)sc1C(=O)N1C[C@@H]2[C@H](C1)[C@H]2Oc1cc(C(C)(C)N)cc(-c2ccc3c(c2)CCO3)n1 [Example 34, ((1R,5S,6s)-6-((4-(2-aminopropan-2-yl)-6-(2,3-dihydrobenzofuran-5-yl)pyridin-2-yl)oxy)-3-azabicyclo[3.1.0]hexan-3-yl)(4-methyl-2-(pyrimidin-2-yl)thiazol-5-yl)methanone]	< 0.01	> 0.1
Cc1cc(-c2cc(C(C)(C)N)cc(O[C@H]3[C@@H]4CN(C(=O)c5sc(-c6ncccn6)nc5C)C[C@@H]43)n2)ccc1F [Example 35, ((1R,5S,6s)-6-((4-(2-aminopropan-2-yl)-6-(4-fluoro-3-methylphenyl)pyridin-2-yl)oxy)-3-azabicyclo[3.1.0]hexan-3-yl)(4-methyl-2-(pyrimidin-2-yl)thiazol-5-yl)methanone]	< 0.01	> 0.1
Cc1nc(-c2ncccn2)sc1C(=O)N1C[C@@H]2[C@H](C1)[C@H]2Oc1cc(C(C)(C)N)cc(-c2ccc(C#N)c(F)c2)n1 [Example 36, 4-(4-(2-aminopropan-2-yl)-6-(((1R,5S,6s)-3-(4-methyl-2-(pyrimidin-2-yl)thiazole-5-carbonyl)-3-azabicyclo[3.1.0]hexan-6-yl)oxy)pyridin-2-yl)-2-fluorobenzonitrile]	< 0.01	0.01 to 0.1
Cc1ccc(-c2cc(C(C)(C)N)cc(O[C@H]3[C@@H]4CN(C(=O)c5sc(-c6ncccn6)nc5C)C[C@@H]43)n2)cc1F [Example 37, ((1R,5S,6s)-6-((4-(2-aminopropan-2-yl)-6-(3-fluoro-4-methylphenyl)pyridin-2-yl)oxy)-3-azabicyclo[3.1.0]hexan-3-yl)(4-methyl-2-(pyrimidin-2-yl)thiazol-5-yl)methanone]	< 0.01	0.01 to 0.1
